Reference: patent US7807781B2, “Inhibitors of serine protease activity and their use in methods and compositions for treatment of viral infections” (The Regents of the University of Colorado, priority 1999, dated 2010)

System: HIV-1 production in U1 cells
Assay: U1 monocytic cell assay, TNF-induced HIV-1 p24 antigen
Assay type: cell-based
Conditions: for TNF-induced p24 antigen: 3.0 ng/ml TNF

AAT: Alpha-1-antitrypsin purified from the blood of healthy volunteers to single-band homogeneity
TNF-induced p24 antigen (AAT 0.1 mg/ml): 16,405±8,449 pg/ml | TNF-induced p24 antigen (AAT 0.5 mg/ml): 16,863±7,718 pg/ml | TNF-induced p24 antigen (AAT 1 mg/ml): 15,328±7,129 pg/ml | TNF-induced p24 antigen (AAT 2 mg/ml): 12,566±4,981 pg/ml | TNF-induced p24 antigen (AAT 3 mg/ml): 9,341±2,730 pg/ml | TNF-induced p24 antigen (AAT 4 mg/ml): 9,091±3,436 pg/ml | TNF-induced p24 antigen (AAT 5 mg/ml): 6,868±2,737 pg/ml | mean percent reduction in TNF-induced p24 antigen (AAT 3 mg/ml): 56% | mean percent reduction in TNF-induced p24 antigen (AAT 4 mg/ml): 60% | mean percent reduction in TNF-induced p24 antigen (AAT 5 mg/ml): 73%
